The values below come from patent publication US20260137698A1, “CYCLIN-DEPENDENT KINASE 7 INHIBITORS” (JOINT STOCK COMPANY «BIOCAD», priority 2022, published 2026).

The target of data set [1] is CDK7/Cyclin H/MNAT1 (Homo sapiens, UniProt P50613). In words: Inhibition of CDK7/Cyclin H/MNAT1 kinase activity (ADP-Glo). The conditions noted are these: mean value from several measurements; read-out: IC50 CDK7/Cyclin H/MNAT. The data set is classed as biochemical. In outline: (§1)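 Kinase preincubated with compound (11 points, 4-fold steps from 50 μM) for 10 minutes at 25° C. in kinase buffer A with DTT, then reacted 40-60 minutes at 25° C. with ATP and CDKtide, Histone H1 or PDKtide substrate. ADP formation read by ADP-Glo luminescence; IC50 from four-parameter fit.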
Chain of CDK7/Cyclin H/MNAT1 (P50613 whole entry): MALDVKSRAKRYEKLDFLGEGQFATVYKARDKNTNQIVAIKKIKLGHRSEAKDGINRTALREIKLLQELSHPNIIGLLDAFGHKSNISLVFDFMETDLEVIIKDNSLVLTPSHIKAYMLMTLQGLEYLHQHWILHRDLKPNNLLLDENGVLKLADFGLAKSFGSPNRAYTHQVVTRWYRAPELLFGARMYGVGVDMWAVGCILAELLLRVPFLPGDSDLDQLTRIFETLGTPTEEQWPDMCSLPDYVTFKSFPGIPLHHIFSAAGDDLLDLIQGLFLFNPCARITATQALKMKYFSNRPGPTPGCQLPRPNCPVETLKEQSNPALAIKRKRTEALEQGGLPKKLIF
Chain of CDK7/Cyclin H/MNAT1 (P51946 whole entry partner): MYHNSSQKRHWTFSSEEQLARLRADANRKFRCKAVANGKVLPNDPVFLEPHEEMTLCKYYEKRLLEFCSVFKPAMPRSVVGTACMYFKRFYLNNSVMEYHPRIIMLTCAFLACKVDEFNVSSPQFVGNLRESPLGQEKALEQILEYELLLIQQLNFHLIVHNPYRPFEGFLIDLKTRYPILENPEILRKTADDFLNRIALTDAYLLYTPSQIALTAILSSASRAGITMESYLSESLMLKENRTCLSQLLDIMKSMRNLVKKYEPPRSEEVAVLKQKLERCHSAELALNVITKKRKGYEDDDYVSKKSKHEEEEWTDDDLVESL
Chain of CDK7/Cyclin H/MNAT1 (P51948 whole entry partner): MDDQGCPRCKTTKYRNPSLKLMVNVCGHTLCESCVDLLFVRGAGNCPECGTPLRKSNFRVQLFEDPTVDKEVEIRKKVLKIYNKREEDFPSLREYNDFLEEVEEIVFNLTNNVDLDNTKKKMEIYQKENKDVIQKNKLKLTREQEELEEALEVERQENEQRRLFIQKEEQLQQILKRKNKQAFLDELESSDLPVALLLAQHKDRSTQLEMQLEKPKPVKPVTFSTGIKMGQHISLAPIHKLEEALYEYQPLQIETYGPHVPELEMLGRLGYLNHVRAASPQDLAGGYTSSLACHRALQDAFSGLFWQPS

For data set [2], the target named is CDK2/Cyclin A (Homo sapiens, UniProt P24941). Briefly: Inhibition of CDK2/Cyclin A kinase activity (ADP-Glo). Type of data set: biochemical. The conditions noted are these: mean value from several measurements; read-out: IC50 CDK2/Cyclin A. Summed up:
as §1

For data set [3], the target named is CDK9/Cyclin K (Homo sapiens, UniProt P50750). In words: Inhibition of CDK9/Cyclin K kinase activity (ADP-Glo). The data set is classed as biochemical. The conditions noted are these: mean value from several measurements; read-out: IC50 CDK9/Cyclin K. In outline: as §1
Chain of CDK9/Cyclin K (P50750 whole entry): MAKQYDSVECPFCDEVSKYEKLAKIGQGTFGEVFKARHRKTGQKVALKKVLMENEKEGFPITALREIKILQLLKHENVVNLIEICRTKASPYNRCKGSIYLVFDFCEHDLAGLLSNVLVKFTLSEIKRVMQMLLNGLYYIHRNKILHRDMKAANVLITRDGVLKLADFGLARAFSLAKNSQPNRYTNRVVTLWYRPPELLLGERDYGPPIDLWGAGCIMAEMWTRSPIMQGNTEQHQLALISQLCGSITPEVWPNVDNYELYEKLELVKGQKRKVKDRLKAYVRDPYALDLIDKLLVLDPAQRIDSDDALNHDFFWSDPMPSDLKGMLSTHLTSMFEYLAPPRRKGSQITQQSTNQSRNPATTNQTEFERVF
Chain of CDK9/Cyclin K (O75909 whole entry partner): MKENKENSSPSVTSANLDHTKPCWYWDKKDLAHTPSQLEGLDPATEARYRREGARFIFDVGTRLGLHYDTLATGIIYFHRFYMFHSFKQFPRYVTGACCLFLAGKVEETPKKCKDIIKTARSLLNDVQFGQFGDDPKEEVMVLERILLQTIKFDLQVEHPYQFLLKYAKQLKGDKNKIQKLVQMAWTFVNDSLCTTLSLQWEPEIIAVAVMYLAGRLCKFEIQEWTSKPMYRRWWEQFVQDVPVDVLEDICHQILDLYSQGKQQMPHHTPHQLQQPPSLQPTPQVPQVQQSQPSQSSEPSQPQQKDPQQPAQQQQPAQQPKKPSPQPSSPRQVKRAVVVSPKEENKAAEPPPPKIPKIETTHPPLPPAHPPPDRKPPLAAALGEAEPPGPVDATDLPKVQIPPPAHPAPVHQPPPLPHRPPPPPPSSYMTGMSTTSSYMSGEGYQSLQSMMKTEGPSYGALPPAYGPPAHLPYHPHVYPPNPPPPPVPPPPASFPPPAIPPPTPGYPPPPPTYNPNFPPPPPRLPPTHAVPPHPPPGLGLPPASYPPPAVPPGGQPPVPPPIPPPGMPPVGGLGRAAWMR
For data set [4], the system named is MDA-MB-468 (triple negative breast cancer). Briefly: Antiproliferative assay on MDA-MB-468 cells (AlamarBlue, 96 h). The conditions noted are these: Homo sapiens, mean value from several measurements. The data set is classed as cell-based.
The test system of data set [5] is NCl-H82 (small cell lung cancer). In words: Antiproliferative assay on NCl-H82 cells (AlamarBlue, 120 h). Type of data set: cell-based. The conditions noted are these: mean value from several measurements. The procedure:
The antiproliferative activity of CDK7 inhibitors according to the present invention was evaluated in a cell test using continuous cell cultures: MDA-MB-468 (triple negative breast cancer, ATCC® HTB-132™) and NCl-H82 (small cell lung cancer, ATCC® HTB-175™) using a viable AlamarBlue dye (Thermo Fisher Scientific Inc, order no. DAL1100). The cells were grown in DMEM (PanEco, order no. C330π) and RPMI-1640 (PanEco, order no. C330π), respectively. The basal growth medium was enriched with L-glutamine at a concentration of 2 mM (PanEco, order no. Φ032) and 10% fetal bovine serum (Gibco, order no. 16140-071). The night before measurement, MDA-MB-468 adherent cells were detached from plastic with a solution of trypsin-EDTA (PanEco, order no. Π039π), the solution was then inactivated by a DMEM complete medium, centrifuged at 1000 RPM (Eppendorf, 5804 R), a suspension of cells was prepared in a DMEM complete medium, introduced into 96-well culture plates (Corning Inc, order no. 3599) at 8×10^3 cells in 100 μl of medium per well. The next day, test compounds were dissolved in DMSO and diluted with a DMEM complete medium to a final concentration ranging from 50 μM to 10 pM. Diluted compounds in a volume of 50 μl were introduced into the plate wells with cells in triplicates (the final concentration of DMSO was no more than 1%) and incubated at 37° C. in an incubator with 5% CO2 for 96 hours. NCl-H82 suspension cell line was prepared on the day of the analysis. 10×10^3 cells in 100 μl of an RPMI-1640 complete medium were added to each well of a 96-well plate. The procedure for sample dilution is as described above. Cells with test compounds were incubated at 37° C. in an incubator with 5% CO2 for 120 hours. Following incubation, […] of AlamarBlue reagent (Thermo Fisher Scientific Inc., order no. DAL1100) was added to the wells, the contents of the plates were stirred in an orbital shaker (Biosan, Latvia), then further incubated for 5.5-6 hours at 37° C. in an incubator with 5% CO2. The number of viable cells was detected using the Infinite M200Pro microplate spectrophotometer (Tecan Group Ltd, Switzerland) by way of measuring a fluorescent signal at an excitation wavelength (λEx) of 540 nm and an emission wavelength (λEm) of 590 nm.
IC50 value was calculated using the Magellan software (Tecan Group Ltd, Switzerland) by approximating experimental points by four-parameter model with the optimization by Levenberg-Marquardt: […]

Data set [6] can be described thus: General cytotoxicity on primary differentiated HepaRG cells (72 h). The data set is classed as cell-based. The conditions noted are these: human, general toxicity, mean value from several measurements. Summed up:
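Differentiated HepaRG cells, maintained a week in basal hepatic medium with maintenance/metabolism supplement, were plated at 25×10^3 cells/well overnight. Compounds (200 μM to 0.2 nM) were added for 72 h before viability readout.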

The nature of data set [7]: Passive membrane permeability through PAMPA artificial membrane, pH 7.4. Type of data set: in vitro ADME. The conditions noted are these: pH 7.4, 10 μmol, 20 hours at room temperature, mean of multiple measurements, read-out: PAMPA passive permeability Pe. Summed up:
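Compound at 10 μmol in 0.01 M phosphate buffer pH 7.4 placed in donor wells over lecithin-phospholipid-impregnated PVDF filter, buffer in acceptor; 20 h at room temperature. Donor and acceptor levels measured by RP-HPLC-UV; Pe (cm/s) and membrane retention R (%) calculated.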

Data set [8] in a line: Microsomal stability in human liver microsomes (HLM). Type of data set: in vitro ADME. The conditions noted are these: 1 μM test compound. On the procedure:
The procedure for investigating the metabolism of selected compounds was carried out in microsomal fractions of the liver (of rats, mice, humans) in the presence of a phase I metabolism cofactor (NADPH).
The rate of enzymatic decomposition of the compound in liver microsomes in in vitro analysis was determined by keeping a reaction mixture comprising 0.5 mg/ml of pooled human, rat or mouse liver microsomes, 1 μM test compound, 1.5 mM […] (Carbosynth, UK, cat. no. NN108711101) and 1.5 mM magnesium chloride in 0.1 M sodium phosphate buffer (pH 7.4) in a solid-state thermostat at 37° C. (XenoTech, USA, order no. H2610, cat. no. R1000, cat. no. M1000). Incubation was carried out in three replicates.
To determine the stability of compounds under sample preparation conditions, an aliquot in two replicates with the test compound and a microsomal fraction devoid of the NADPH cofactor, which was incubated for 40 minutes at 37° C.
Reactions were stopped at 0, 10, 20, 30 and 40 min time points by way of adding an ice mixture of acetonitrile:methanol (3:1) comprising an internal standard.
Samples were then centrifuged to remove the precipitated protein, supernatants were analyzed using HPLC-MS/MS to determine in vitro clearance (CLint) of the compounds. The Agilent 6410 mass spectrometer (Agilent, USA) combined with the Agilent 1260 Infinity II HPLC liquid chromatograph (Agilent, USA) and a cooling autosampler controlled by MassHunter software (Agilent, USA) was used as an HPLC-MS/MS system. Chromatographic analysis was performed on a C18 reversed-phase HPLC column (Agilent, Waters or equivalent) in a gradient elution mode in a system of mobile phases: 0.1% formic acid in water/0.1% formic acid in acetonitrile, flow rate: 0.5 ml/min, column T=35° C. Mass spectrometric detection was performed with electrospray ionization in multiple reaction monitoring mode. Precursor ions, fragment ions and collision energies for each substance were selected experimentally.
A graph of dependence of the logarithmic ratio between substance's peak area and internal standard's peak area vs time was built. The dependent coefficient of this line corresponded to the elimination rate constant k, on the basis of which the in vitro clearance CLint was calculated:
Based on resulting in vitro clearance CLint values, the microsomal stability of the selected compounds for humans, rats and mice was concluded.

A value given as a limit tells only on which side of the number the result lay.

Turning to `FC(F)(F)c1cnc(N[C@H]2CCCNC2)nc1-c1c[nH]c(-c2nnnn2C2CC2)c1` [CDK7_1102], the IC50 is 5 to 50 nM in data set [1]; over 200 nM in data set [2]; 5 to 50 nM in data set [3]; 10 to 100 nM in data set [4]; 10 to 100 nM in data set [5]. The CC50 at 72 h in data set [6] lay in the range of 500 to 2000 nM. Moreover, in data set [7], the Papp at 20 h, 10 μmol lay in the range of 1 to 5 ×10⁻⁶ cm/s.
`O=C1NCCc2c(-c3nc(N[C@H]4CCCNC4)ncc3C(F)(F)F)c[nH]c21` [CDK7_814, 3-(2-{[(3S)-piperidin-3-yl]amino}-5-(trifluoromethyl)pyrimidin-4-yl)-1H,4H,5H,6H, 7H-pyrrolo[2,3-c]pyridin-7-one]: the IC50 was under 5 nM in data set [1]; over 200 nM in data set [2]; 50 to 200 nM in data set [3]; 10 to 100 nM in data set [4]; 10 to 100 nM in data set [5]. The half-maximal cytotoxic concentration (CC50) at 72 h in data set [6] was 500 to 2000 nM. Besides, in data set [7], the Papp at 20 h, 10 μmol was under 1 ×10⁻⁶ cm/s.
For the compound `Cn1nnnc1-c1cc(-c2nc(N[C@H]3CCCNC3)ncc2C(F)(F)F)c[nH]1` [CDK7_999, 4-[5-(1-methyl-1H-1,2,3,4-tetrazol-5-yl)-1H-pyrrol-3-yl]-N-[(3S)-piperidin-3-yl]-5-(trifluoromethyl) pyrimidin-2-amine], the IC50 in data set [1] was under 5 nM; in data set [2], over 200 nM; in data set [3], 5 to 50 nM; in data set [4] it was 10 to 100 nM; in data set [5], 100 to 1000 nM. The 50% cytotoxic concentration (CC50) at 72 h in data set [6] was 500 to 2000 nM. Further, in data set [7], the Papp at 20 h, 10 μmol was under 1 ×10⁻⁶ cm/s.
`Cc1nc(-c2cc(-c3nc(N[C@H]4CCCNC4)ncc3C(F)(F)F)c[nH]2)no1` [CDK7_1060, 4-[5-(5-methyl-1,2,4-oxadiazol-3-yl)-1H-pyrrol-3-yl]-N-[(3S)-piperidin-3-yl]-5-(trifluoromethyl)py-rimidin-2-amine]: the IC50 in data set [1] is under 5 nM; in data set [2] it was over 200 nM; in data set [3], 5 to 50 nM; in data set [4], 10 to 100 nM; in data set [5], 10 to 100 nM. The CC50 at 72 h in data set [6] was 100 to 500 nM. In data set [7], the Papp at 20 h, 10 μmol lay in the range of 5 to 10 ×10⁻⁶ cm/s.
For `Cn1ccnc1N1CCCc2c(-c3nc(NC4CCCNC4)ncc3C(F)(F)F)c[nH]c2C1=O` (centres unmarked) [CDK7_1177], the IC50 in data set [1] is 5 to 50 nM; in data set [2] it was over 200 nM; in data set [3], over 200 nM. In data set [6], this compound showed a half-maximal cytotoxic concentration (CC50) at 72 h of over 2000 nM. The “In vitro clearance CLint (HLM)” value in data set [8] is reported as “A (Clint < 20 μl/(min · mg of protein))”.
With `O=c1c2[nH]cc(-c3nc(N[C@H]4CCCNC4)ncc3C(F)(F)F)c2ccn1C1CC1` [CDK7_1105, 6-cyclopropyl-3-(2-{[(3S)-piperidin-3-yl]amino}-5-(trifluoromethyl)py-rimidin-4-yl)-1H,6H,7H-pyrrolo[2,3-c]pyridin-7-one], the IC50 is under 5 nM in data set [1]; over 200 nM in data set [2]; 5 to 50 nM in data set [3]; under 10 nM in data set [4]; 10 to 100 nM in data set [5]. In data set [6], the CC50 at 72 h is 100 to 500 nM. Also, the Papp at 20 h, 10 μmol in data set [7] was under 1 ×10⁻⁶ cm/s.
For the compound `O=c1c2[nH]cc(-c3nc(N[C@H]4CCCNC4)ncc3C(F)(F)F)c2ccn1-c1nccs1` [CDK7_1058, 3-(2-{[(3S)-piperidin-3-yl]amino}-5-(trifluoromethyl)py-rimidin-4-yl)-6-(1,3-thiazol-2-yl)-1H,6H,7H-pyrrolo[2,3-c]pyridin-7-one], the IC50 is under 5 nM in data set [1]; over 200 nM in data set [2]; 5 to 50 nM in data set [3]; under 10 nM in data set [4]; under 10 nM in data set [5]. The compound also came in with a half-maximal cytotoxic concentration (CC50) at 72 h in data set [6] of 500 to 2000 nM. For the same compound, the Papp at 20 h, 10 μmol in data set [7] fell in the range of 1 to 5 ×10⁻⁶ cm/s.
Regarding `CC1(C)CC[C@H](Nc2ncc(C(F)(F)F)c(-c3c[nH]c4c3CCCN(CC3CCCC3)C4=O)n2)CN1` [CDK7_1155, 7-(cyclopentylmeth-yl)-3-(2-{[(3S)-6,6-dimethylpiperidin-3-yl]amino}-5-(trifluoromethyl)py-rimidin-4-yl)-1H,4H,5H,6H,7H, 8H-pyrrolo[2,3-c]azepin-8-one], the IC50 in data set [1] is 5 to 50 nM; in data set [2], over 200 nM; in data set [3], over 200 nM; in data set [4], 10 to 100 nM; in data set [5], 10 to 100 nM. Moreover, the CC50 at 72 h in data set [6] was over 2000 nM. In addition, the Papp at 20 h, 10 μmol in data set [7] fell in the range of 5 to 10 ×10⁻⁶ cm/s.
On to `CC1(C)CC[C@H](Nc2ncc(C(F)(F)F)c(-c3c[nH]c4c3CCCN(C3CCCC3)C4=O)n2)CN1` [CDK7_1154, 7-cyclopentyl-3-(2-{[(3S)-6,6-dimethylpiperidin-3-yl]amino}-5-(trifluoromethyl)py-rimidin-4-yl)-1H,4H,5H,6H,7H, 8H-pyrrolo[2,3-c]azepin-8-one], for which the IC50 is under 5 nM in data set [1]; over 200 nM in data set [2]; over 200 nM in data set [3]; 10 to 100 nM in data set [4]; 10 to 100 nM in data set [5]. In addition, the half-maximal cytotoxic concentration (CC50) at 72 h in data set [6] was over 2000 nM. Further, the Papp at 20 h, 10 μmol in data set [7] was 5 to 10 ×10⁻⁶ cm/s.
As for `CN(C)C(=O)c1cc(-c2nc(N[C@H]3CCCNC3)ncc2C(F)(F)F)cn1C` [CDK7_1017, N,N,1-trimethyl-4-(2-{[(3S)-piperidin-3-yl]amino}-5-(trifluoromethyl)py-rimidin-4-yl)-1H-pyrrole-2-carboxamide], the IC50 is 5 to 50 nM in data set [1]; over 200 nM in data set [2]; 50 to 200 nM in data set [3]; 100 to 1000 nM in data set [4]; over 1000 nM in data set [5]. The CC50 at 72 h in data set [6] was over 2000 nM. Further, in data set [7], the Papp at 20 h, 10 μmol fell in the range of 1 to 5 ×10⁻⁶ cm/s.
